Reference: ChEMBL document CHEMBL5120812, “Cytotoxic Nitrobenzoyl Sesquiterpenoids from an Antarctica Sponge-Derived Aspergillus insulicola” (J Nat Prod, 2022)

Key:
Assay type in all cases: functional, cell-based
ASPC1 = experiment: Cytotoxicity against human ASPC1 cells assessed as inhibition of cell growth incubated for 72 hrs by SRB assay; conditions: ASPC1, 72 h
MDA-MB-231 = experiment: Cytotoxicity against human MDA-MB-231 cells assessed as inhibition of cell growth incubated for 72 hrs by SRB assay; conditions: MDA-MB-231, 72 h
PANC-1 = experiment: Cytotoxicity against human PANC-1 cells assessed as inhibition of cell growth incubated for 72 hrs by SRB assay; conditions: PANC-1, 72 h

C=C(CCCCCCCC(=O)OC[C@@]1(C)CCC[C@@]2(C)[C@H]1[C@H](OC(=O)c1ccc([N+](=O)[O-])cc1)C=C1C(=O)OC[C@@]12O)C(=O)O
IC50 (ASPC1): 2.7 µM | IC50 (MDA-MB-231): 11.7 µM | IC50 (PANC-1): 4.6 µM
